Source: PubChem BioAssay AID248 (DTP/NCI, 2004)
Values joined by “and” are separate entries in the source; they are usually repeats but may differ in a detail not shown here. Equal values may be shown once. Toxic doses and inconclusive results are not listed.

System: L1210 leukemia ip in BDF1 mice, survival T/C
Test: NCI In Vivo Anticancer Drug Screen. Data for tumor model L1210 Leukemia (intraperitoneal) in B6D2F1 (BDF1) mice
Settings: endpoint: mean survival time, higher = longer survival
How it was run: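 In this screen, tumor-bearing mice given compound are compared to those given vehicle, and their survival values are reported as a treated-to-control quotient.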

[1] = dose: 100.0 mg/kg/injection, schedule: Q01DX001 (ip), vehicle: carboxymethylcellulose (CMC)
[2] = dose: 100.0 mg/kg/injection, schedule: Q04DX003 (ip), vehicle: Klucel (hydroxypropylcellulose) (HPC)
[3] = dose: 200.0 mg/kg/injection, schedule: Q01DX001 (ip), vehicle: carboxymethylcellulose (CMC)
[4] = dose: 200.0 mg/kg/injection, schedule: Q04DX003 (ip), vehicle: Klucel (hydroxypropylcellulose) (HPC)
[5] = dose: 400.0 mg/kg/injection, schedule: Q01DX001 (ip), vehicle: carboxymethylcellulose (CMC)
[6] = dose: 400.0 mg/kg/injection, schedule: Q04DX003 (ip), vehicle: Klucel (hydroxypropylcellulose) (HPC)
[7] = dose: 100.0 mg/kg/injection, schedule: Q01DX001 (ip), vehicle: saline
[8] = dose: 200.0 mg/kg/injection, schedule: Q01DX001 (ip), vehicle: saline
[9] = dose: 400.0 mg/kg/injection, schedule: Q01DX001 (ip), vehicle: saline
[10] = dose: 100.0 mg/kg/injection, schedule: Q01DX009 (ip), vehicle: saline with Tween-80
[11] = dose: 200.0 mg/kg/injection, schedule: Q01DX009 (ip), vehicle: saline with Tween-80
[12] = dose: 400.0 mg/kg/injection, schedule: Q01DX009 (ip), vehicle: saline with Tween-80
[13] = dose: 100.0 mg/kg/injection, schedule: Q01DX009 (ip), vehicle: Klucel (hydroxypropylcellulose) (HPC)
[14] = dose: 200.0 mg/kg/injection, schedule: Q01DX009 (ip), vehicle: Klucel (hydroxypropylcellulose) (HPC)
[15] = dose: 100.0 mg/kg/injection, schedule: Q01DX009 (ip), vehicle: saline
[16] = dose: 200.0 mg/kg/injection, schedule: Q01DX009 (ip), vehicle: saline
[17] = dose: 100.0 mg/kg/injection, schedule: Q04DX002 (ip), vehicle: saline with Tween-80
[18] = dose: 200.0 mg/kg/injection, schedule: Q04DX002 (ip), vehicle: saline with Tween-80
[19] = dose: 400.0 mg/kg/injection, schedule: Q04DX002 (ip), vehicle: saline with Tween-80

Structure (SMILES): CC(=O)Nc1ccc(O)cc1
- T/C [1]: 93 % of control
- T/C (dose: 100.0 mg/kg/injection, schedule: Q04DX002 (ip), vehicle: saline): 116 % of control
- T/C [2]: 97 % of control
- T/C [3]: 96 % of control
- T/C (dose: 200.0 mg/kg/injection, schedule: Q04DX002 (ip), vehicle: saline): 100 % of control
- T/C [4]: 104 % of control
- T/C [5]: 107 % of control
- T/C (dose: 400.0 mg/kg/injection, schedule: Q04DX002 (ip), vehicle: saline): 88 % of control
- T/C [6]: 111 % of control

Structure (SMILES): CCCCCCCc1nc2c([nH]1)c(=O)n(C)c(=O)n2C
- T/C (dose: 50.0 mg/kg/injection, schedule: Q01DX001 (ip), vehicle: saline): 98 % of control
- T/C [7]: 101 % of control
- T/C [8]: 95 % of control
- T/C [9]: 116 % of control

Structure (SMILES): COc1ccc(OC)c(NCCN2C(=O)c3ccccc3C2=O)c1
- T/C (dose: 100.0 mg/kg/injection, schedule: Q04DX002 (ip), vehicle: Klucel (hydroxypropylcellulose) (HPC)): 95 % of control
- T/C (dose: 200.0 mg/kg/injection, schedule: Q04DX002 (ip), vehicle: Klucel (hydroxypropylcellulose) (HPC)): 100 % of control
- T/C (dose: 400.0 mg/kg/injection, schedule: Q04DX002 (ip), vehicle: Klucel (hydroxypropylcellulose) (HPC)): 100 % of control

Structure (SMILES): COc1cc(CCNC(=O)Cc2ccc(OCc3ccccc3)c(OC)c2)ccc1OCc1ccccc1
- T/C [10]: 89 % of control
- T/C [11]: 101 % of control
- T/C [12]: 94 % of control

Structure (SMILES): C=C1C(=O)OCC2(CC)CCCCC12 (stereo unspecified)
- T/C (dose: 20.0 mg/kg/injection, schedule: Q01DX009 (ip), vehicle: saline with Tween-80): 103 % of control
- T/C (dose: 40.0 mg/kg/injection, schedule: Q01DX009 (ip), vehicle: saline with Tween-80): 106 % of control
- T/C (dose: 80.0 mg/kg/injection, schedule: Q01DX009 (ip), vehicle: saline with Tween-80): 91 % of control
- T/C (dose: 160.0 mg/kg/injection, schedule: Q01DX009 (ip), vehicle: saline with Tween-80): 98 % of control

Structure (SMILES): CN(C)C=NCCNc1ccc([N+](=O)[O-])cn1
- T/C (dose: 50.0 mg/kg/injection, schedule: Q01DX009 (ip), vehicle: saline with Tween-80): 100 % of control
- T/C (dose: 100.0 mg/kg/injection, schedule: Q01DX001 (ip), vehicle: saline with Tween-80): 98 % of control
- T/C [10]: 100 % of control
- T/C (dose: 200.0 mg/kg/injection, schedule: Q01DX001 (ip), vehicle: saline with Tween-80): 95 % of control

Structure (SMILES): COc1cc2c(cc1OC)C(CCc1ccc(Cl)cc1)N(C)CC2 (stereo unspecified)
- T/C (dose: 12.5 mg/kg/injection, schedule: Q01DX009 (ip), vehicle: Klucel (hydroxypropylcellulose) (HPC)): 113 % of control
- T/C (dose: 25.0 mg/kg/injection, schedule: Q01DX009 (ip), vehicle: Klucel (hydroxypropylcellulose) (HPC)): 108 % of control
- T/C (dose: 50.0 mg/kg/injection, schedule: Q01DX009 (ip), vehicle: Klucel (hydroxypropylcellulose) (HPC)): 104 % of control
- T/C [13]: 116 % of control
- T/C [14]: 113 % of control

Structure (SMILES): CCCC(=O)OCC1OC(n2cnc3c(=S)nc(N)[nH]c32)C(OC(=O)CCC)C1OC(=O)CCC (stereo unspecified)
- T/C (dose: 1.0 mg/kg/injection, schedule: Q01DX Z (ip), vehicle: carboxymethylcellulose (CMC)): 109 % of control
- T/C (dose: 1.5 mg/kg/injection, schedule: Q01DX Z (ip), vehicle: carboxymethylcellulose (CMC)): 117 % of control
- T/C (dose: 2.0 mg/kg/injection, schedule: Q01DX Z (ip), vehicle: carboxymethylcellulose (CMC)): 112 % of control
- T/C (dose: 2.3 mg/kg/injection, schedule: Q01DX Z (ip), vehicle: carboxymethylcellulose (CMC)): 124 % of control
- T/C (dose: 3.0 mg/kg/injection, schedule: Q01DX Z (ip), vehicle: carboxymethylcellulose (CMC)): 117 % of control
- T/C (dose: 5.0 mg/kg/injection, schedule: Q01DX Z (ip), vehicle: carboxymethylcellulose (CMC)): 154 % of control
- T/C (dose: 9.7 mg/kg/injection, schedule: Q01DX Z (oral), vehicle: carboxymethylcellulose (CMC)): 106 % of control
- T/C (dose: 17.0 mg/kg/injection, schedule: Q01DX Z (ip), vehicle: carboxymethylcellulose (CMC)): 157 % of control and 159 % of control
- T/C (dose: 25.0 mg/kg/injection, schedule: Q01DX Z (ip), vehicle: carboxymethylcellulose (CMC)): 152 % of control
- T/C (dose: 27.0 mg/kg/injection, schedule: Q01DX Z (oral), vehicle: carboxymethylcellulose (CMC)): 115 % of control
- T/C (dose: 37.0 mg/kg/injection, schedule: Q01DX Z (ip), vehicle: carboxymethylcellulose (CMC)): 112 % of control and 118 % of control
- T/C (dose: 125.0 mg/kg/injection, schedule: Q01DX Z (oral), vehicle: carboxymethylcellulose (CMC)): 119 % of control

Structure (SMILES): CC(=O)c1ccc(N2CCNCC2)cc1
- T/C (dose: 10.0 mg/kg/injection, schedule: Q01DX001 (ip), vehicle: carboxymethylcellulose (CMC)): 115 % of control
- T/C (dose: 20.0 mg/kg/injection, schedule: Q01DX001 (ip), vehicle: carboxymethylcellulose (CMC)): 107 % of control
- T/C (dose: 40.0 mg/kg/injection, schedule: Q01DX001 (ip), vehicle: carboxymethylcellulose (CMC)): 109 % of control

Structure (SMILES): CC(=O)c1ccc(OC(=O)C(C)(C)C)cc1
- T/C [7]: 97 % of control
- T/C [8]: 103 % of control
- T/C [9]: 98 % of control

Structure (SMILES): O=[N+]([O-])c1cc(C=Nc2ccccc2)ccc1Cl
- T/C [15]: 97 % of control
- T/C [2]: 94 % of control
- T/C [16]: 108 % of control
- T/C [4]: 100 % of control
- T/C (dose: 400.0 mg/kg/injection, schedule: Q01DX009 (ip), vehicle: saline): 103 % of control
- T/C [6]: 97 % of control

Structure (SMILES): ClC(Cl)(Cl)c1cccc(-c2nc(NCCCN3CCCC3)nc(C(Cl)(Cl)Cl)n2)c1
- T/C [13]: 102 % of control
- T/C [14]: 100 % of control
- T/C (dose: 400.0 mg/kg/injection, schedule: Q01DX009 (ip), vehicle: Klucel (hydroxypropylcellulose) (HPC)): 86 % of control

Structure (SMILES): NNc1cc(=O)n2ccccc2n1
- T/C [1]: 98 % of control
- T/C [3]: 98 % of control
- T/C [5]: 101 % of control

Structure (SMILES): Cc1cccc(NC(=O)OCCN(CCOC(=O)Nc2cccc(C)c2)c2cccc(C)c2)c1
- T/C [7]: 88 % of control
- T/C [8]: 90 % of control
- T/C [9]: 94 % of control

Structure (SMILES): CC(=O)CCP(C)(=O)O
- T/C [17]: 95 % of control
- T/C [18]: 92 % of control
- T/C [19]: 104 % of control

Structure (SMILES): COc1cc(OC)c(NC2=CC(c3ccc(Cl)cc3)OC2=O)cc1Cl (stereo unspecified)
- T/C (dose: 100.0 mg/kg/injection, schedule: Q01DX001 (ip), vehicle: Klucel (hydroxypropylcellulose) (HPC)): 92 % of control
- T/C [2]: 92 % of control
- T/C (dose: 200.0 mg/kg/injection, schedule: Q01DX001 (ip), vehicle: Klucel (hydroxypropylcellulose) (HPC)): 94 % of control
- T/C [4]: 95 % of control
- T/C (dose: 400.0 mg/kg/injection, schedule: Q01DX001 (ip), vehicle: Klucel (hydroxypropylcellulose) (HPC)): 92 % of control
- T/C [6]: 95 % of control

Structure (SMILES): CC1(CO)CC2C=CC1C2 (stereo unspecified)
- T/C [17]: 99 % of control
- T/C [18]: 99 % of control
- T/C [19]: 99 % of control

Structure (SMILES): CC(C)(C)C(=O)Oc1ccc2ccccc2c1
- T/C (dose: 75.0 mg/kg/injection, schedule: Q04DX002 (ip), vehicle: gum acacia): 105 % of control
- T/C (dose: 150.0 mg/kg/injection, schedule: Q04DX002 (ip), vehicle: gum acacia): 92 % of control
- T/C (dose: 300.0 mg/kg/injection, schedule: Q04DX002 (ip), vehicle: gum acacia): 123 % of control

Structure (SMILES): COc1ccc(Br)cc1CC=O
- T/C [1]: 103 % of control
- T/C (dose: 177.6 mg/kg/injection, schedule: Q01DX001 (ip), vehicle: carboxymethylcellulose (CMC)): 95 % of control and 105 % of control
- T/C [3]: 103 % of control
- T/C (dose: 266.8 mg/kg/injection, schedule: Q01DX001 (ip), vehicle: carboxymethylcellulose (CMC)): 97 % of control and 103 % of control
- T/C [5]: 95 % of control and 103 % of control
- T/C (dose: 600.0 mg/kg/injection, schedule: Q01DX001 (ip), vehicle: carboxymethylcellulose (CMC)): 97 % of control and 103 % of control

Structure (SMILES): NC1C2C3C=CC(C3)C12 (stereo unspecified)
- T/C [15]: 107 % of control
- T/C [16]: 100 % of control

Structure (SMILES): CCCCN(C(=O)OCC)P(=O)(OCC)OCC
- T/C [15]: 95 % of control
- T/C [16]: 109 % of control

Structure (SMILES): COP(=NC(C)=O)(OC)OC
- T/C [10]: 101 % of control
- T/C (dose: 100.0 mg/kg/injection, schedule: Q04DX003 (ip), vehicle: saline with Tween-80): 97 % of control
- T/C [11]: 101 % of control
- T/C (dose: 200.0 mg/kg/injection, schedule: Q04DX003 (ip), vehicle: saline with Tween-80): 104 % of control
- T/C [12]: 102 % of control
- T/C (dose: 400.0 mg/kg/injection, schedule: Q04DX003 (ip), vehicle: saline with Tween-80): 106 % of control
